We go through one molecule from patent US20250288515A1, “METHOD AND COMPOSITION FOR TREATING LUNG DISEASES” (MannKind Corporation, priority 2022, published 2025).

A short description of this data set: Pharmacokinetic study in rats, pulmonary insufflation versus intravenous injection. In kind it is in vivo. The following applies: male Sprague Dawley rats, single dose 0.8 mg/kg, samples 10-240 minutes; FIG. 5. As for the experimental part:
Pharmacokinetic studies in rats with Compound I crystalline composite (XC) dry powders-Insufflation studies were performed in rats to deliver doses of dry powders of Compound I, a protein kinase antagonist. The study was performed to determine the pharmacokinetics profile of compound I dry powders made by the process as described above following pulmonary insufflation, or intravenous injection of a single dose of the composition administered in solution to male Sprague Dawley (Charles River Laboratories) adult rats, weighing between 200 g and 250 g at the time of the study. Dry powder comprising 22.1 wt % actual drug content were used and tested at 1 mg/ml in solution to deliver a dose of 0.8 mg/kg to 18 rats in each study group. Rats acclimatized and anesthetized prior to experimentation. Lung and blood samples were taken from the rats at 10, 20, 30, 120, and 240 minutes, post drug administration.

As to `Cc1cccc(-n2ncc(C)c2-c2cc3cnccc3s2)n1` [compound I, 2 [4-methyl-1-(6-methylpyridin-2yl)-1H-pyrazol-5-yl]thieno-[3,2 c]pyridine], the “Lung content of compound I after insufflation versus IV injection” value was “higher content of compound I was detected in rat lung after insufflation versus IV injection”.
